Data as given in the Biogen ADME set (Fang et al. 2023).
In brackets after ≈: the same amount, converted by molar mass.

Settings: for aqueous solubility: pH 6.8

SMILES	intrinsic clearance, human liver microsomes [mL/min/kg]	intrinsic clearance, rat liver microsomes [mL/min/kg]	MDR1-MDCK efflux ratio	aqueous solubility [µg/mL]	fraction unbound, human plasma	fraction unbound, rat plasma
O=S(=O)(Nc1ccc(C(O)(C(F)(F)F)C(F)(F)F)cc1)c1ccccc1	7.61	17.1	–	–	–	–
COc1ccc(-c2noc([C@@H]3CCCN3Cc3cccnc3)n2)cn1	98	1240	0.759	26.2 (≈ 77.7 µM)	–	–
CC1(C)CC[C@]2(C(=O)O)CC[C@]3(C)C(C(=O)C=C4[C@@]5(C)C=C(C#N)C(=O)C(C)(C)[C@@H]5CC[C@]43C)C2C1 (some centres undefined)	–	–	–	63.5 (≈ 129 µM)	–	–
CC(C)CCn1ccc(NC2CCN(C(C)C)CC2)n1	≤ 4.74	152	3.58	–	–	–
Cc1csc(Cc2nc(-c3ccc(O)cc3)no2)n1	15.1	288	0.531	–	–	–
CN1C(=O)[C@@H](NC(=O)c2nnc(Cc3ccccc3)[nH]2)COc2ccccc21	≤ 4.74	104	–	41.5 (≈ 110 µM)	–	–
Cc1nnc(-c2ccccc2NCc2ccsc2)o1	–	–	0.204	0.93 (≈ 3.43 µM)	–	–
c1ccc(-n2cnc3cc(NCc4ccccn4)ccc32)cc1	22.6	3200	–	18.4 (≈ 61.3 µM)	–	–
O=C(Nc1ccccc1)Nc1ccc(-c2ccc(C(=O)[C@H]3CCC[C@@H]3C(=O)O)cc2)cc1	11.3	23.8	5.96	–	–	–
CN(C)c1nc(N)nc(Sc2ccccc2)n1	108	642	0.746	3.11 (≈ 12.6 µM)	–	–
CC(=O)NC[C@H]1C[C@]2(C)[C@@H](CCCC[C@]2(C)O)N1CC1(O)CCCC1	≤ 4.74	107	8.2	–	–	–
O=C(CN1CCCC(c2nc3ccccc3o2)C1)Nc1ccc(OC(F)(F)F)cc1 (centres undefined)	134	496	0.983	6.85 (≈ 16.3 µM)	–	–
O=C(Nc1ccccc1-n1ccnc1)c1ccc(F)cc1	10.2	40.3	0.961	60.8 (≈ 216 µM)	–	–
Cc1nnnn1CCCc1ccccc1	–	–	–	5.67 (≈ 28 µM)	–	–
Fc1cc(-c2ccncc2)ccc1CNc1ncccn1	24.4	238	0.843	–	–	–
Nc1c(F)ccc2cnc(-n3ccc4ccncc43)cc12	368	2360	–	–	0.0517	0.0428
O=C(NCc1nncn1-c1ccccc1)C1CCCC1	≤ 4.74	12.2	20.8	43.3 (≈ 160 µM)	–	–
NC(=O)Cn1nnc(-c2ccccc2F)n1	–	–	–	11.6 (≈ 52.2 µM)	–	–
O=S(=O)(Cc1csc(C2CCCC2)n1)C1CCCC1	92.7	2190	0.538	34.9 (≈ 116 µM)	–	–
C[C@@H](c1ccc(F)cc1)n1nnc2cnc3ccc(-c4ccc5ocnc5c4)cc3c21	–	–	–	0.47 (≈ 1.15 µM)	–	–
Clc1cccc(CNc2nc(C3CC3)no2)c1	22	165	0.476	29.3 (≈ 117 µM)	–	–
Nc1cncc(-c2ccc(CN3CCCCC3)cc2)c1	40.7	56.3	0.743	26 (≈ 97.1 µM)	–	–
O=C(O)c1ccc(Nc2ncc3c(n2)-c2ccc(Cl)cc2C(c2c(F)cccc2F)=NC3)cc1	≤ 4.74	102	3.32	47.1 (≈ 98.8 µM)	–	–
C[C@@H]1CN(C(=O)CC(c2ccccc2)c2ccccc2)C[C@H](C)O1	36.4	1900	1.31	52.3 (≈ 162 µM)	0.154	0.0523
CCc1cc2c(=O)[nH]c(-c3ccccn3)nc2s1	–	–	–	49 (≈ 190 µM)	–	–
O=C(c1ccc(F)cc1)N1Cc2nc[nH]c2C[C@H]1c1nc(-c2ccc(Cl)cc2)no1	21.3	133	–	20.2 (≈ 47.7 µM)	–	–
Cc1cc2c(s1)c1cnn(Cc3ccccc3F)c(=O)c1n2C	326	2650	–	–	–	–
Cc1nc(O)c2c(n1)CN(Cc1ccccc1)CC2	≤ 4.74	≤ 10.7	9.79	42.7 (≈ 167 µM)	–	–
CC(=O)N1CCN(C(=O)[C@H]2CCCCN2C(=O)OC(C)(C)C)CC1	≤ 4.74	≤ 10.7	9.44	113 (≈ 333 µM)	–	–

Second part, the compound after the results:

intrinsic clearance, human liver microsomes [mL/min/kg]	intrinsic clearance, rat liver microsomes [mL/min/kg]	MDR1-MDCK efflux ratio	aqueous solubility [µg/mL]	fraction unbound, human plasma	fraction unbound, rat plasma	SMILES
12.4	1100	1.8	54.4 (≈ 148 µM)	–	–	Cc1ccc(NS(C)(=O)=O)c(C(=O)N(C)c2ccc3ccccc3c2)c1
≤ 4.74	548	0.874	–	–	–	Cc1ccsc1-c1nsc(NC(=O)CN(C)C)n1
≤ 4.74	≤ 10.7	–	40.4 (≈ 158 µM)	–	–	CCS(=O)(=O)CC(=O)Nc1cc(C)ccc1C
–	–	–	0.85 (≈ 3.38 µM)	–	–	Cc1ccc(C(=O)Nc2nc3ccccc3[nH]2)cc1
26.7	562	79.1	–	–	–	O=C(c1ccc(NS(=O)(=O)c2cccc3cnccc23)cc1)N1CCCC1
12.5	114	1.57	–	–	–	CC(=O)Nc1ccc(CNCCOc2ccc(F)cc2F)cc1
87.4	1750	0.522	–	–	–	COc1ccc(C(=O)c2ccc(Cl)cc2)c(OC)c1
≤ 4.74	≤ 10.7	–	–	–	–	O=C(NC[C@]1(O)CCN(Cc2cccs2)C[C@H]1O)c1c[nH]cn1
29.4	281	34.4	43.9 (≈ 122 µM)	–	–	CC(C)c1nc(O)c2nnn(C[C@@H]3CCCN(C(=O)C(C)(C)C)C3)c2n1
62.6	4560	1.24	21.4 (≈ 63.4 µM)	–	–	Cc1cccc(-c2nc(CN(Cc3cnn(C)c3)C(C)C)c(C)o2)c1
75.3	477	0.442	11.8 (≈ 43.2 µM)	–	–	CN(Cc1cccc(C#N)c1)c1cnc2ccccc2n1
20.6	189	–	–	–	–	CCN(CC)C(=O)Oc1cccc2cccnc12
37.4	1090	12.1	–	–	–	Cc1cc(C)cc(OCCN(C)C(=O)NCCS(=O)(=O)N(C)C)c1
169	–	50.3	43.9 (≈ 102 µM)	0.00604	0.00729	CCCc1nc2nc(C)c(NS(=O)(=O)c3ccc(C4CCCCC4)cc3)c(O)n2n1
21.1	479	–	43.5 (≈ 177 µM)	–	–	Cc1cccc(OCC(=O)Nc2ccn(C)n2)c1
16.2	860	32.8	–	–	–	COCC1(CNS(=O)(=O)c2ccc3[nH]cnc3c2)CCC1
146	835	3.45	–	–	–	CC(C)N(C[C@@H]1O[C@@H](n2cnc3c(N)ncnc32)[C@H](O)[C@H]1O)[C@H]1C[C@@H](CCc2nc3cc(C(C)(C)C)ccc3[nH]2)C1
15.3	25.4	0.596	22.1 (≈ 109 µM)	–	–	CN(C)c1ncn(-c2cccc(N)c2)n1
≤ 4.74	230	0.542	35.3 (≈ 165 µM)	–	–	Cc1ccnc(Oc2cc(N)ccc2C)c1
71	702	2.24	62 (≈ 173 µM)	–	–	Cc1cccc(O[C@H]2CN(Cc3ccc(OCCCO)cc3)C[C@@H]2O)c1
15.4	183	0.646	56.4 (≈ 232 µM)	–	–	C#CCNC(=O)Cc1coc2cc(OC)ccc12
≤ 4.74	≤ 10.7	–	32.2 (≈ 155 µM)	–	–	COc1ccc(N)cc1N1CCOC1=O
11.4	74.5	0.504	12.4 (≈ 42.9 µM)	–	–	COc1cc2nc(/C=C/c3cocn3)sc2cc1OC
≤ 4.74	39.4	42.1	61.8 (≈ 141 µM)	–	–	COc1ccc(-c2nc(C3CCN(C(=O)c4sc(C)nc4C)CC3)[nH]c2C(N)=O)cc1
–	–	0.681	31.8 (≈ 108 µM)	–	–	COC(=O)[C@@H]1C[C@H](O)CN1CC#Cc1ccc(Cl)cc1
36.5	651	66.1	54.5 (≈ 161 µM)	–	–	Cc1ccc2c(CC(=O)N(C)Cc3nnc4n3CCC4)coc2c1C
187	1320	–	31.4 (≈ 116 µM)	–	–	Cc1ccc(NC(=O)[C@H]2COc3ccccc3O2)nc1
14.4	75.7	6.69	–	–	–	Cc1cc(C)c(NC(=O)CN(C)c2ccc(C#N)nc2)c(C)c1
9.83	32.7	1.32	–	–	–	CCN(CCOC)C(=O)Nc1ccc2occc(=O)c2c1
